{"source": "patent US10577378B2", "about": "“EIF4A-inhibiting compounds and methods related thereto” (eFFECTOR Therapeutics, Inc., priority 2015, dated 2020)"}
{"system": "MDA-MB-231 human breast cancer cells", "test": "Cell proliferation assay (CellTiter-Glo, 72 hours treatment)", "format": "cell-based", "conditions": "Homo sapiens, MDA-MB-231, 72 h, read-out: MDA-MB-231 cell proliferation assay (IC50)", "in_short": "(§1)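 IC50 categories: under 100 nM +++, 100–1000 nM ++, above 1000 nM +, derived by sigmoidal curve fitting of CellTiter-Glo luminescence. Cells plated at 2,500 per well, dosed the following day and exposed 72 h at 37 °C versus DMSO control.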", "units": {"IC50": "nM"}}
{"smiles": "COc1cncc2c1[C@]1(O)[C@@H](CN3CCN(C)CC3)[C@H](CO)[C@@H](c3ccccc3)[C@]1(c1ccc(Br)cc1)O2", "note": "(racemic) [183F, Rac-(4bR,5R,6R,7S,7aR)-7a-(4-bromophenyl)-6-(hydroxymethyl)-4-methoxy-5-((4-methylpiperazin-1-yl)methyl)-7-phenyl-5,6,7,7a-tetrahydro-4bH-cyclopenta[4,5]furo[2,3-c]pyridin-4b-ol]", "IC50": "< 100"}
{"system": "MDA-MB-231 human breast cancer cells", "test": "Cell proliferation assay (CellTiter-Glo, 72 hours treatment)", "format": "cell-based", "conditions": "Homo sapiens; MDA-MB-231 cells, 72 hours at 37° C., CellTiter-Glo; read-out: MDA-MB-231 cell proliferation assay (IC50)", "in_short": "as §1", "units": {"IC50": "nM"}}
{"smiles": "CN(C)C(=O)[C@H]1[C@@H](O)[C@@]2(O)c3ncccc3O[C@@]2(c2ccc(C#N)cc2)[C@@H]1c1ccccc1", "note": "(single isomer, unassigned) [9F]", "IC50": "> 1000"}
{"smiles": "COc1ccc([C@@]23Oc4cc(OC)ccc4[C@]2(NC(C)=O)[C@H](O)[C@H](C(=O)N(C)C)[C@H]3c2ccccc2)cc1", "note": "(racemic) [45F, Rac-(1R,2R,3S,3aR,8bS)-8b-acetamido-1-hydroxy-6-methoxy-3a-(4-methoxyphenyl)-N,N-dimethyl-3-phenyl-2,3,3a,8b-tetrahydro-1H-cyclopenta[b]benzofuran-2-carboxamide]", "IC50": "> 1000"}
{"smiles": "COC(=O)[C@@H]1[C@@H](c2ccccc2)[C@]2(c3ccc(Br)cc3)Oc3cc(Cl)cnc3[C@@]23O[C@@H]13", "note": "(racemic) [161F, Rac-methyl (1aS,2R,3S,3aR,8bS)-3a-(4-bromophenyl)-6-chloro-3-phenyl-1a,2,3,3a-tetrahydro-oxireno[2″,3″:1′,5′]cyclopenta[1′,2′:4,5]furo[3,2-b]pyridine-2-carboxylate]", "IC50": "> 1000"}
{"smiles": "COc1cncc2c1[C@]1(O)[C@@H]3OC(=O)N[C@@H]3[C@@H](c3ccccc3)[C@]1(c1ccc(C#N)cc1)O2", "note": "(single isomer, unassigned) [81F]", "IC50": "< 100"}
{"smiles": "COc1cncc2c1[C@]1(O)[C@H](O)[C@H](C(=O)N3CCOCC3)[C@@H](c3ccccc3)[C@]1(c1ccc(Br)cc1)O2", "note": "(racemic) [87F, Rac-((4bS,5R,6R,7S,7aR)-7a-(4-bromophenyl)-4b,5-dihydroxy-4-methoxy-7-phenyl-4b,6,7,7a-tetrahydro-5H-cyclopenta[4,5]furo[2,3-c]pyridin-6-yl)(morpholino)methanone]", "IC50": "< 100"}
{"smiles": "COc1cncc2c1[C@]1(O)[C@H](O)[C@H](C(=O)NC3CC3)[C@@H](c3ccccc3)[C@]1(c1ccc(Br)cc1)O2", "note": "(racemic) [89F, Rac-(4bS,5R,6R,7S,7aR)-7a-(4-bromophenyl)-N-cyclopropyl-4b,5-dihydroxy-4-methoxy-7-phenyl-4b,6,7,7a-tetrahydro-5H-cyclopenta[4,5]furo[2,3-c]pyridine-6-carboxamide]", "IC50": "< 100"}
{"smiles": "COc1nc(C#N)cc2c1[C@]1(O)[C@H](O)[C@H](CN3CC(F)(F)C3)[C@@H](c3ccccc3)[C@]1(c1ccc(C#N)cc1)O2", "note": "(racemic) [207Fa, Rac-(5aR,6S,7S,8R,8aS)-5a-(4-cyanophenyl)-7-((3,3-difluoroazetidin-1-yl)methyl)-8,8a-dihydroxy-1-methoxy-6-phenyl-5a,7,8,8a-tetrahydro-6H-cyclopenta[4,5]furo[3,2-c]pyridine-3-carbonitrile]", "IC50": "100 to 1000"}
{"smiles": "COCCN(C)C(=O)[C@H]1[C@@H](O)[C@@]2(O)c3c(OC)cncc3O[C@@]2(c2ccc(Br)cc2)[C@@H]1c1ccccc1", "note": "(racemic) [260F, rac-(4bS,5R,6R,7S,7aR)-7a-(4-bromophenyl)-4b,5-dihydroxy-4-methoxy-N-(2-methoxyethyl)-N-methyl-7-phenyl-4b,6,7,7a-tetrahydro-5H-cyclopenta[4,5]furo[2,3-c]pyridine-6-carboxamide]", "IC50": "< 100"}
{"smiles": "COc1cc2c(c(OC)n1)[C@]1(O)[C@H](O)[C@H](CN(C)C)[C@@H](c3ccccc3)[C@]1(c1ccc(C#N)cc1)O2", "note": "(single isomer, unassigned) [231F]", "IC50": "< 100"}
{"smiles": "COc1cncc2c1[C@]1(O)[C@H](O)[C@H](CNCCO)[C@@H](c3ccccc3)[C@]1(c1ccc(C#N)cc1)O2", "note": "(racemic) [79F, Rac-4-((4bS,5R,6S,7S,7aR)-4b,5-dihydroxy-6-(((2-hydroxyethyl)amino)methyl)-4-methoxy-7-phenyl-5,6,7,7a-tetrahydro-4bH-cyclopenta[4,5]furo[2,3-c]pyridin-7a-yl)benzonitrile]", "IC50": "> 1000"}
{"smiles": "COc1nc(Cl)cc2c1[C@]1(O)[C@H](O)[C@H](CNCC(F)F)[C@@H](c3ccccc3)[C@]1(c1ccc(C#N)cc1)O2", "note": "(racemic) [196F, Rac-4-((5aR,6S,7S,8R,8aS)-3-chloro-7-(((2,2-difluoroethyl)amino)methyl)-8,8a-dihydroxy-1-methoxy-6-phenyl-6,7,8,8a-tetrahydro-5aH-cyclopenta[4,5]furo[3,2-c]pyridin-5a-yl)benzonitrile]", "IC50": "< 100"}
{"smiles": "CN(C)C(=O)[C@H]1[C@@H](O)[C@@]2(O)c3nc(C(F)(F)F)c(O)cc3O[C@@]2(c2ccc(C#N)cc2)[C@@H]1c1ccccc1", "note": "(racemic) [29F, Rac-(5aR,6S,7R,8R,8aS)-5a-(4-cyanophenyl)-3,8,8a-trihydroxy-N,N-dimethyl-6-phenyl-2-(trifluoromethyl)-5a,7,8,8a-tetrahydro-6H-cyclopenta[4,5]furo[3,2-b]pyridine-7-carboxamide]", "IC50": "> 1000"}
{"smiles": "O=C1C[C@@H](c2ccccc2)[C@]2(c3ccc(Br)cc3)Oc3cc(Cl)cnc3[C@]12O", "note": "(racemic) [129F, Rac-(5aR,6S,8aR)-5a-(4-bromophenyl)-3-chloro-8a-hydroxy-6-phenyl-5a,6,7,8a-tetrahydro-8H-cyclopenta[4,5]furo[3,2-b]pyridin-8-one]", "IC50": "> 1000"}
{"smiles": "COc1cncc2c1[C@]1(O)[C@H](O)[C@H](CNC3CC3)[C@@H](c3ccccc3)[C@]1(c1ccc(C#N)cc1)O2", "note": "(racemic) [244F, Rac-4-((4bS,5R,6S,7S,7aR)-6-((cyclopropylamino)methyl)-4b,5-dihydroxy-4-methoxy-7-phenyl-4b,5,6,7-tetrahydro-7aH-cyclopenta[4,5]furo[2,3-c]pyridin-7a-yl)benzonitrile]", "IC50": "< 100"}
{"smiles": "COc1cncc2c1[C@]1(O)[C@H](O)[C@H](C(=O)N3[C@@H]4CC[C@H]3COC4)[C@@H](c3ccccc3)[C@]1(c1ccc(Br)cc1)O2", "note": "(racemic) [264F, Rac-((1R,5S)-3-oxa-8-azabicyclo[3.2.1]octan-8-yl)((4bS,5R,6R,7S,7aR)-7a-(4-bromophenyl)-4b,5-dihydroxy-4-methoxy-7-phenyl-4b,6,7,7a-tetrahydro-5H-cyclopenta[4,5]furo[2,3-c]pyridin-6-yl)methanone]", "IC50": "< 100"}
{"smiles": "COc1cncc2c1[C@]1(O)[C@H](O)[C@H](CN3CCOCC3)[C@@H](c3ccccc3)[C@]1(c1ccc(C(F)(F)F)cc1)O2", "note": "(single isomer, unassigned) [282F]", "IC50": "100 to 1000"}
{"smiles": "COC(=O)[C@@]12C[C@@H]1[C@@]1(O)c3ncc(Cl)cc3O[C@@]1(c1ccc(C#N)cc1)[C@@H]2c1ccccc1", "note": "(racemic) [25F, Rac-methyl (5aR,6R,6aS,7aS,7bR)-3-chloro-5a-(4-cyanophenyl)-7b-hydroxy-6-phenyl-5a,7,7a,7b-tetrahydrocyclopropa[4′,5′]cyclopenta[1′,2′:4,5]furo[3,2-b]pyridine-6a(6H)-carboxylate]", "IC50": "> 1000"}
{"smiles": "COc1cncc2c1[C@]1(O)[C@H](O)[C@H](C(=O)N(C)C3COC3)[C@@H](c3ccccc3)[C@]1(c1ccc(Br)cc1)O2", "note": "(racemic) [237F, Rac-(4bS,5R,6R,7S,7aR)-7a-(4-bromophenyl)-4b,5-dihydroxy-4-methoxy-N-methyl-N-(oxetan-3-yl)-7-phenyl-4b,6,7,7a-tetrahydro-5H-cyclopenta[4,5]furo[2,3-c]pyridine-6-carboxamide]", "IC50": "< 100"}
{"smiles": "N#Cc1ccc([C@@]23Oc4cc(Cl)cnc4[C@]2(O)[C@H](O)[C@H](S(=O)(=O)c2ccccn2)[C@H]3c2ccccc2)cc1", "note": "(racemic) [164F, Rac-4-((5aR,6S,7R,8S,8aS)-3-chloro-8,8a-dihydroxy-6-phenyl-7-(pyridin-2-ylsulfonyl)-6,7,8,8a-tetrahydro-5aH-cyclopenta[4,5]furo[3,2-b]pyridin-5a-yl)benzonitrile]", "IC50": "100 to 1000"}
{"smiles": "COc1cncc2c1[C@]1(O)[C@H](O)[C@H](CN(C)C)[C@@H](c3ccccc3)[C@]1(c1ccc(C)cc1)O2", "note": "(single isomer, unassigned) [256F]", "IC50": "< 100"}
{"smiles": "N#Cc1ccc([C@@]23Oc4cc(Cl)cnc4[C@]2(O)[C@H](O)[C@H](C(N)=O)[C@H]3c2ccccc2)cc1", "note": "(single isomer, unassigned) [18F]", "IC50": "< 100"}
{"smiles": "COc1cncc2c1[C@]1(O)[C@H](O)[C@H](CN(C)C(C)(C)C)[C@@H](c3ccccc3)[C@]1(c1ccc(C#N)cc1)O2", "note": "(single isomer, unassigned) [243F]", "IC50": "100 to 1000"}
{"smiles": "COCCN(C)C[C@H]1[C@@H](O)[C@@]2(O)c3c(OC)cncc3O[C@@]2(c2ccc(C#N)cc2)[C@@H]1c1ccccc1", "note": "(single isomer, unassigned) [261F]", "IC50": "< 100"}
{"smiles": "COc1cncc2c1[C@]1(O)[C@H](O)[C@H](CNCC(F)F)[C@@H](c3ccccc3)[C@]1(c1ccc(C#N)cc1)O2", "note": "(single isomer, unassigned) [115F]", "IC50": "100 to 1000"}
{"smiles": "CC1(C)COCCN1C[C@H]1[C@@H](O)[C@@]2(O)c3ncc(Cl)cc3O[C@@]2(c2ccc(Br)cc2)[C@@H]1c1ccccc1", "note": "(racemic) [214F, Rac-(5aR,6S,7S,8R,8aS)-5a-(4-bromophenyl)-3-chloro-7-((3,3-dimethylmorpholino)methyl)-6-phenyl-5a,6,7,8-tetrahydro-8aH-cyclopenta[4,5]furo[3,2-b]pyridine-8,8a-diol]", "IC50": "100 to 1000"}
{"smiles": "COc1ccc([C@@]23Oc4cc(Cl)cnc4[C@]2(O)[C@H](O)[C@H](C(=O)N(C)C)[C@H]3c2ccccc2)cc1", "note": "(single isomer, unassigned) [5F]", "IC50": "100 to 1000"}
{"smiles": "CNS(=O)(=O)[C@H]1[C@@H](O)[C@@]2(O)c3ncc(Cl)cc3O[C@@]2(c2ccc(C#N)cc2)[C@@H]1c1ccccc1", "note": "(racemic) [125F, rac-(5aR,6S,7R,8S,8aS)-3-chloro-5a-(4-cyanophenyl)-8,8a-dihydroxy-N-methyl-6-phenyl-5a,7,8,8a-tetrahydro-6H-cyclopenta[4,5]furo[3,2-b]pyridine-7-sulfonamide]", "IC50": "> 1000"}
